Reference: patent US10077277B2, “Bicyclic heteroarylaminoalkyl phenyl derivatives as PI3K inhibitors” (Incyte Corporation, priority 2014, dated 2018)
Where a name gives a salt, the structure may show the parent alone.

Experiments:
Type in all cases: biochemical
human JAK1 = human JAK1 (Homo sapiens, UniProt P23458); test: In vitro JAK kinase assay (Example J), JAK1; settings: Assay J at 1 mM ATP
human JAK2 = human JAK2 (Homo sapiens (Human), UniProt O60674); test: In vitro JAK kinase assay (Example J), JAK2; settings: ratio of IC50s, Assay J at 1 mM ATP
PI3Kδ (p110δ/p85α) = PI3Kδ (p110δ/p85α) (Homo sapiens (Human), UniProt O00329); test: PI3Kδ scintillation proximity assay (Example A3); settings: Assay A3, 20 μM ATP
Text: Example A3: PI3Kδ Scintillation Proximity Assay
[γ-^33P]ATP (10 mCi/mL) was purchased from PerkinElmer (Waltham, Mass.). Lipid kinase substrate, D-myo-Phosphatidylinositol 4,5-bisphosphate (PtdIns(4,5)P2)D (+)-sn-1,2-di-O-octanoylglyceryl, 3-O-phospho linked (PIP2), CAS 204858-53-7, was purchased from Echelon Biosciences (Salt Lake City, Utah). PI3Kδ (p110δ/p85α) was purchased from Millipore (Bedford, Mass.). ATP, MgCl2, DTT, EDTA, MOPS and CHAPS were purchased from SigmaAldrich (St. Louis, Mo.). Wheat Germ Agglutinin (WGA) YSi SPA Scintillation Beads was purchased from GE healthcare life sciences (Piscataway, N.J.).
The kinase reaction was conducted in polystyrene 384-well matrix white plate from Thermo Fisher Scientific in a final volume of 25 μL. Inhibitors were first diluted serially in DMSO and added to the plate wells before the addition of other reaction components. The final concentration of DMSO in the assay was 0.5%. The PI3K assays were carried out at room temperature in 20 mM MOPS, pH 6.7, 10 mM MgCl2, 5 mM DTT and CHAPS 0.03%. Reactions were initiated by the addition of ATP, the final reaction mixture consisted of 20 μM PIP2, 20 μM ATP, 0.2 μCi [γ-^33P] ATP, 4 nM PI3Kδ. Reactions were incubated for 210 min and terminated by the addition of 40 μL SPA beads suspended in quench buffer: 150 mM potassium phosphate pH 8.0, 20% glycerol. 25 mM EDTA, 400 μM ATP. The final concentration of SPA beads was 1.0 mg/mL. After the plate sealing, plates were shaken overnight at room temperature and centrifuged at 1800 rpm for 10 minutes, the radioactivity of the product was determined by scintillation counting on Topcount (PerkinElmer). IC50 determination was performed by fitting the curve of percent control activity versus the log of the inhibitor concentration using the GraphPad Prism 3.0 software. IC50 data for the Examples is presented in Table 2 as determined by Assay A3.

Sequence of PI3Kδ (p110δ/p85α) (O00329 whole entry): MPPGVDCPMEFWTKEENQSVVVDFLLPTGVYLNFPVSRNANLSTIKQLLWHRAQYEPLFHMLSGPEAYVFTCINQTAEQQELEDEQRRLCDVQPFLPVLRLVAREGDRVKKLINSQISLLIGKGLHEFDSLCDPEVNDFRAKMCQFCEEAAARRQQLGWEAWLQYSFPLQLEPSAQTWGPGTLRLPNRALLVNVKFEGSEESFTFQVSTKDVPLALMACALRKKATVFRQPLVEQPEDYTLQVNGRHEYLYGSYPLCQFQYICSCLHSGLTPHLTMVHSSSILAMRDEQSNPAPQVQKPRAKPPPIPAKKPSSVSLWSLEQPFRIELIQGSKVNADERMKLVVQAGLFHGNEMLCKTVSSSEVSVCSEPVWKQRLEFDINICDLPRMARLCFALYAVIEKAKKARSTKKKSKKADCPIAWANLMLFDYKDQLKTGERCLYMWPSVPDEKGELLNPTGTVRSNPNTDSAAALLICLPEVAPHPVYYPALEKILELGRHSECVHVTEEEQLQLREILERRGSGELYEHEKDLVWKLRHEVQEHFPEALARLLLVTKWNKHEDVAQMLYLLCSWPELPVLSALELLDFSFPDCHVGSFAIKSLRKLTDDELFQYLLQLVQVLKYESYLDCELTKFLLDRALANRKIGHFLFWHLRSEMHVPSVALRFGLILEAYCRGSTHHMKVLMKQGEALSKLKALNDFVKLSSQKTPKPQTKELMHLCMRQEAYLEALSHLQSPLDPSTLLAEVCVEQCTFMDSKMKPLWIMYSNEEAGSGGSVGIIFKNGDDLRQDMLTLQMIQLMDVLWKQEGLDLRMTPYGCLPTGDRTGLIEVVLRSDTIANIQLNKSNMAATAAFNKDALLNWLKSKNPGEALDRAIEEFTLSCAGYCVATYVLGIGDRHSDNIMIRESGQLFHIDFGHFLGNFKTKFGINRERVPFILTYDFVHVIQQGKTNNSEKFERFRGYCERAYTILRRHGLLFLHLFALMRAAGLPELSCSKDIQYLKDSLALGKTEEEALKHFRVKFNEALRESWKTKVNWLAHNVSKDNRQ
Sequence of PI3Kδ (p110δ/p85α) (P27986 whole entry partner): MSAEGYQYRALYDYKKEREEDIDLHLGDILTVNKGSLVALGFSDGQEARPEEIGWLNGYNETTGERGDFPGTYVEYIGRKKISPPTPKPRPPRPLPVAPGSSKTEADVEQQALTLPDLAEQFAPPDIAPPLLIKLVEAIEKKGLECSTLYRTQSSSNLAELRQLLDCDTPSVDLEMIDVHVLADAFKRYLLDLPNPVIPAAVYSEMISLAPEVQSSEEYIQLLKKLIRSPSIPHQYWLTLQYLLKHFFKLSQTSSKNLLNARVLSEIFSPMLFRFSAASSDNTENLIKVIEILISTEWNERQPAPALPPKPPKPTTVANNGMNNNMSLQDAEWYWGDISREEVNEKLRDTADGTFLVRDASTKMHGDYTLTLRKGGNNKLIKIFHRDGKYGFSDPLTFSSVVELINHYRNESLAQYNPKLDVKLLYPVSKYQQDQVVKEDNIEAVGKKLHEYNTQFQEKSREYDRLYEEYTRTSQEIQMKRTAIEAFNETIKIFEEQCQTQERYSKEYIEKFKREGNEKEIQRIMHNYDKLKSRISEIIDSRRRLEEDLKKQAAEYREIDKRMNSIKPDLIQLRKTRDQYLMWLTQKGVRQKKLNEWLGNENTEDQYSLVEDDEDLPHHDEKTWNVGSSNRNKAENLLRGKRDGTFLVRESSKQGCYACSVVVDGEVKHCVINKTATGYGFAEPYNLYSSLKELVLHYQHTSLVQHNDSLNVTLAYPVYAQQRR
Sequence of human JAK2 (O60674 828-1132): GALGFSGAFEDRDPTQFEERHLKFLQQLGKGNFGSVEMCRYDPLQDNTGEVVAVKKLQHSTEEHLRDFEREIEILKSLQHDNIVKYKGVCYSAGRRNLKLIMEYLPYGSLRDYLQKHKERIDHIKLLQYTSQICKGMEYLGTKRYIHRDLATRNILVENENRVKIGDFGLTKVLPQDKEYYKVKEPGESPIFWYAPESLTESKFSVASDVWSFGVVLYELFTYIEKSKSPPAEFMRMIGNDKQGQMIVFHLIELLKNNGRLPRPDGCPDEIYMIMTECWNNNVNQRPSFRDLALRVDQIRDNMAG

SMILES	IC50 (human JAK1) [nM]	JAK2/JAK1 (human JAK2)	IC50 (PI3Kδ (p110δ/p85α)) [nM]
N#CCC1(n2cc(-c3ncnc4[nH]ccc34)cn2)CN(C2CCN(C(=O)c3ccnc(C(F)(F)F)n3)CC2)C1 [Example 9, [3-[4-(7H-pyrrolo[2,3-d]pyrimidin-4-yl)-1H-pyrazol-1-yl]-1-(1-{[2-(trifluoromethyl)pyrimidin-4-yl]carbonyl}piperidin-4-yl)azetidin-3-yl]acetonitrile]	< 10	>10	–
C[C@H](O)CNCc1cc(OC2CCN([C@H]3C[C@](CC#N)(n4cc(-c5ncnc6[nH]ccc56)cn4)C3)CC2)nc(C(F)(F)F)c1 [Example 25]	< 10	>10	–
N#CC[C@]1(n2cc(-c3ncnc4[nH]ccc34)cn2)C[C@H](N2CCC(Oc3cc(CCO)cc(C(F)(F)F)n3)CC2)C1 [Example 26]	< 10	>10	–
CCOc1c(C(C)Nc2ncnc3cccnc23)cc(Cl)c(F)c1C1CNC(=O)C1 (stereo not shown) [Example 2, 4-{3-Chloro-6-ethoxy-2-fluoro-5-[1-(pyrido[3,2-d]pyrimidin-4-ylamino)ethyl]phenyl}pyrrolidin-2-one]	–	–	≤ 100
CCOc1c([C@@H](C)Nc2ncnc3cccnc23)cc(Cl)c(F)c1[C@@H]1CNC(=O)C1 (single isomer, unassigned) [Example 2D, 4-{3-chloro-6-ethoxy-2-fluoro-5-[1-(pyrido[3,2-d]pyrimidin-4-ylamino)ethyl]phenyl}pyrrolidin-2-one]	–	–	100 to 400
N#CC[C@]1(n2cc(-c3ncnc4[nH]ccc34)cn2)C[C@H](N2CCC(Oc3cc(CN4CCC[C@@H]4CO)cc(C(F)(F)F)n3)CC2)C1 [Example 13]	< 10	>10	–
N#CC[C@]1(n2cc(-c3ncnc4[nH]ccc34)cn2)C[C@H](N2CCN(C(=O)c3ccnc(C(F)(F)F)n3)CC2)C1 [Example 10]	< 10	>10	–
CCOc1c(C(C)Nc2ncnc3scnc23)cc(Cl)c(F)c1C1CNC(=O)C1 (single isomer, unassigned) [Example 1D, 4-{3-chloro-6-ethoxy-2-fluoro-5-[1-([1,3]thiazolo[5,4-d]pyrimidin-7-ylamino)ethyl]phenyl}pyrrolidin-2-one]	–	–	100 to 400
N#CCC(C1CCN(c2cccc(Cl)n2)C1)n1cc(-c2ncnc3[nH]ccc23)cn1 (stereo not shown) [bis(trifluoroacetate)]	< 10	>10	–
N#CCC1(n2cc(-c3ncnc4[nH]ccc34)cn2)CN([C@H]2CC[C@@H](Oc3cc(CCO)nc(C(F)(F)F)n3)CC2)C1 [Example 18, {1-(cis-4-{[6-(2-hydroxyethyl)-2-(trifluoromethyl)pyrimidin-4-yl]oxy}cyclohexyl)-3-[4-(7H-pyrrolo[2,3-d]pyrimidin-4-yl)-1H-pyrazol-1-yl]azetidin-3-yl}acetonitrile]	< 10	>10	–
C[C@H](NC(=O)c1cc(F)c(N2CC(CC#N)(n3cc(-c4ncnc5[nH]ccc45)cn3)C2)cc1F)C(F)(F)F [Example 16]	< 10	>10	–
N#CCC1(n2cc(-c3ncnc4[nH]ccc34)cn2)CN([C@H]2CC[C@@H](Oc3cc(CN4CC[C@H](O)C4)cc(C(F)(F)F)n3)CC2)C1 [Example 22, {1-(cis-4-{[4-{[(3S)-3-hydroxypyrrolidin-1-yl]methyl}-6-(trifluoromethyl)pyridin-2-yl]oxy}cyclohexyl)-3-[4-(7H-pyrrolo[2,3-d]pyrimidin-4-yl)-1H-pyrazol-1-yl]azetidin-3-yl}acetonitrile]	< 10	>10	–
CCOc1c(C(C)Nc2ncnc3scnc23)cc(Cl)c(F)c1C1CNC(=O)C1 (stereo not shown) [Example 1, 4-{3-Chloro-6-ethoxy-2-fluoro-5-[1-([1,3]thiazolo[5,4-d]pyrimidin-7-ylamino)ethyl]phenyl}pyrrolidin-2-one trifluoroacetate]	–	>10	≤ 100
CC(C)(O)c1cc(O[C@H]2CC[C@@H](N3CC(CC#N)(n4cc(-c5ncnc6[nH]ccc56)cn4)C3)CC2)nc(C(F)(F)F)c1 [Example 20, {1-(cis-4-{[4-(1-hydroxy-1-methylethyl)-6-(trifluoromethyl)pyridin-2-yl]oxy}cyclohexyl)-3-[4-(7H-pyrrolo[2,3-d]pyrimidin-4-yl)-1H-pyrazol-1-yl]azetidin-3-yl}acetonitrile]	< 10	>10	–
N#CC[C@]1(n2cc(-c3ncnc4[nH]ccc34)cn2)C[C@H](N2CCC(Oc3cc(CN4CCC[C@H]4CO)cc(C(F)(F)F)n3)CC2)C1 [Example 12]	< 10	>10	–
CCOc1c(C(C)Nc2ncnc3scnc23)cc(Cl)c(F)c1C1CNC(=O)C1 (single isomer, unassigned) [Example 1B, 4-{3-chloro-6-ethoxy-2-fluoro-5-[1-([1,3]thiazolo[5,4-d]pyrimidin-7-ylamino)ethyl]phenyl}pyrrolidin-2-one]	–	–	100 to 400
C[C@@H](CO)NCc1cc(OC2CCN([C@H]3C[C@](CC#N)(n4cc(-c5ncnc6[nH]ccc56)cn4)C3)CC2)nc(C(F)(F)F)c1 [Example 23]	< 10	>10	–
N#CCC(CN1CCN(C(=O)c2ccc(C#N)cc2F)CC1)n1cc(-c2ncnc3[nH]ccc23)cn1 (stereo not shown) [Example 6]	–	>10	–
C[C@@H](O)CNCc1cc(OC2CCN([C@H]3C[C@](CC#N)(n4cc(-c5ncnc6[nH]ccc56)cn4)C3)CC2)nc(C(F)(F)F)c1 [Example 24]	< 10	>10	–
N#CC[C@]1(n2cc(-c3ncnc4[nH]ccc34)cn2)C[C@H](N2CCC(Oc3cc(CN4CC(O)C4)cc(C(F)(F)F)n3)CC2)C1 [Example 11]	< 10	>10	–
CCNCc1cc(O[C@H]2CC[C@@H](N3CC(CC#N)(n4cc(-c5ncnc6[nH]ccc56)cn4)C3)CC2)nc(C(F)(F)F)c1 [Example 19, {1-(cis-4-{[4-[(ethylamino)methyl]-6-(trifluoromethyl)pyridin-2-yl]oxy}cyclohexyl)-3-[4-(7H-pyrrolo[2,3-d]pyrimidin-4-yl)-1H-pyrazol-1-yl]azetidin-3-yl}acetonitrile]	< 10	>10	–
N#CCC1(n2cc(-c3ncnc4[nH]ccc34)cn2)CN([C@H]2CC[C@@H](Oc3cc(CN4CC[C@@H](O)C4)cc(C(F)(F)F)n3)CC2)C1 [Example 21]	< 10	>10	–
N#CCC1(n2cc(-c3ncnc4[nH]ccc34)cn2)CN(C2CCN(C(=O)c3ccnc(C(F)(F)F)c3F)CC2)C1 [Example 7, {1-{1-[3-Fluoro-2-(trifluoromethyl)isonicotinoyl]piperidin-4-yl}-3-[4-(7H-pyrrolo[2,3-d]pyrimidin-4-yl)-1H-pyrazol-1-yl]azetidin-3-yl}acetonitrile]	< 10	>10	–
N#CCC1(n2cc(-c3ncnc4[nH]ccc34)cn2)CN(C2CCN(C(=O)Nc3ccc(F)cc3C(F)(F)F)CC2)C1 [Example 8, 4-{3-(Cyanomethyl)-3-[4-(7H-pyrrolo[2,3-d]pyrimidin-4-yl)-1H-pyrazol-1-yl]azetidin-1-yl}-N-[4-fluoro-2-(trifluoromethyl)phenyl]piperidine-1-carboxamide]	< 10	>10	–
CCOc1c([C@@H](C)Nc2ncnc3cccnc23)cc(Cl)c(F)c1[C@@H]1CNC(=O)C1 (single isomer, unassigned) [Example 2B, 4-{3-chloro-6-ethoxy-2-fluoro-5-[1-(pyrido[3,2-d]pyrimidin-4-ylamino)ethyl]phenyl}pyrrolidin-2-one]	–	–	100 to 400
N#CCC(CN1CCN(C(=O)c2ccc(C#N)cc2F)CC1)n1cc(-c2ncnc3[nH]ccc23)cn1 (stereo not shown) [Example 5]	< 10	>10	–
